Test [1] deals with IL-2 in Jurkat (ATCC, clone E6.1) cells stimulated with anti-CD3/28/2. Put plainly: Jurkat IL-2 Assay. As to conditions: Homo sapiens; IL-2 inhibition, Jurkat cells, 30 min compound then anti-CD3/28/2 stimulation for 24 hours; mean value if tested more than once; read-out: IC50. It counts as cell-based. On the procedure: Inhibition was determined in a cell-based assay using Jurkat (ATCC, clone E6.1), an immortalized T-cell line, exposed to a dose response of compound and assessed for viability, and Il-2 inhibition by ELISA. Cells were cultured in RPMI/10% FBS (Invitrogen 11875093, Atlanta Biologicals S12450H), maintained below 3E6/mL and only used in assays while below passage 25. Compounds were stamped by ECHO onto 384w plates (PerkinElmer Culturplate, 6007680). The cells were plated in fresh media on top of compound and incubated for 30 minutes before stimulation with soluble anti-CD3/28/2 (Stemcell, 10970) for 24 hours. Supernatant was collected and assessed for Il-2 (MSD, 384w, L21SA-1). To assess viability of cells treated with compound, cells were lysed with CTG reagent (Promega, G7570), and measured by luminometer. […] IC50s calculated using 4-parameter fit in GraphPad Prism.
In this table, “A” indicates IC50 of less than 0.1 μM; “B” indicates IC50 from 0.1 μM up to 1 μM; and “C” indicates IC50 of greater than 1 μM. “N/A” indicates not tested. For a compound that was tested in more than one experiment, the result shown represents the mean value.

A further test deals with full length MALT1 (Homo sapiens (Human), UniProt Q9UDY8). Put plainly: MALT1 Biochemical Assay. The conditions noted are these: 15 nM enzyme, 30 μM peptide substrate Ac-Leu-Arg-Ser-Arg-Rh110-dPro, 30 min pre-incubation, 60 min reaction; mean value if tested more than once. The protocol: Inhibitor potency was evaluated by measuring enzymatic activity of full length MALT1 at varying concentrations of compound. The enzymatic assay consists of a single substrate reaction that monitors the release of a fluorescent dye upon cleavage of the peptide substrate. […] The assay buffer consists of 50 mM Hepes, pH 7.5, 0.8 M sodium citrate, 1 mM DTT, 0.004% tween-20, and 0.005% bovine serum albumin (BSA). […] The reaction was quenched after 60 minutes with the addition of iodoacetate at a final concentration of 10 mM. Total fluorescence was measured using an Envision (PerkinElmer) with fluorescence excitation at 485 nm and emission at […].
full length MALT1, sequence (Q9UDY8 whole entry): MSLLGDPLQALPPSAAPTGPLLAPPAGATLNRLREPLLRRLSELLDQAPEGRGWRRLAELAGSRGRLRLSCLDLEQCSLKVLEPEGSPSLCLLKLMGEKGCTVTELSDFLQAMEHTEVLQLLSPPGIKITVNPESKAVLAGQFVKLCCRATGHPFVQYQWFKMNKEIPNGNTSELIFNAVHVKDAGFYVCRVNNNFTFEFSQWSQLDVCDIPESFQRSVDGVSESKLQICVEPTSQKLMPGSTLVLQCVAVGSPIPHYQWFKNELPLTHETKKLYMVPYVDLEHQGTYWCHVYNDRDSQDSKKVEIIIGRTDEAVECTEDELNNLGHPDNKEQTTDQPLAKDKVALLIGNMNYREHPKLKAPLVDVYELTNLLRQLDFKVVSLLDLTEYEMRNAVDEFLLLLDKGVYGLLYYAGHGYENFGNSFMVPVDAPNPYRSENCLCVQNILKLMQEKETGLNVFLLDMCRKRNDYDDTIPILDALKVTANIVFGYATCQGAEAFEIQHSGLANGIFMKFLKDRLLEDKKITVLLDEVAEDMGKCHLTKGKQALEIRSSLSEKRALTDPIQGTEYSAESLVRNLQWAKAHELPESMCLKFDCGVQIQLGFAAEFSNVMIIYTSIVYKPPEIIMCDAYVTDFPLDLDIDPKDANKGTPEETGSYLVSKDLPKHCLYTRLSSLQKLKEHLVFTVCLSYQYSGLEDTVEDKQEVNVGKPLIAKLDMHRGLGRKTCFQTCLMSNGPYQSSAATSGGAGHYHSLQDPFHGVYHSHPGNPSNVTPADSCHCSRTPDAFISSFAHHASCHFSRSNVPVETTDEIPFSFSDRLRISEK
For potency determination, 1 μL of serially diluted compound (in 100% DMSO) was pre-incubated with 40 μL of enzyme for 30 minutes. The reaction was initiated with the addition of 10 μL of peptide substrate. The relative fluorescence units were transformed to percent inhibition by using 0% and 100% inhibition controls as reference. […] IC50 values were calculated by fitting the concentration-response curves to a four-parameter logistic equation in GraphPad Prism.

Consider 14 compounds from patent publication US20230391781A1, “MALT1 MODULATORS AND USES THEREOF” (Rheos Medicines, Inc., priority 2020, published 2023).

Where a name gives a salt, the structure may show the parent alone.

A word on the IC50: it is the concentration at which inhibition is half-maximal. Turning to `CNC(=O)N1CCCC(C(=O)N(C)[C@@H](c2ccc(Nc3cnc4nc(Cl)nn4c3[C@H](C)OC)cc2)C(F)(F)F)C1` (stereo partly drawn) [Compound 3.6, N3-[(1S)-1-[4-({2-chloro-7-[(1S)-1-methoxyethyl]-[1,2,4]triazolo[1,5-a]pyrimidin-6-yl}amino)phenyl]-2,2,2-trifluoroethyl]-N1,N3-dimethylpiperidine 1,3-dicarboxamide], the IC50 was over 1 µM in test [1] and 0.1 to 1 µM at full length MALT1.

As to `CO[C@@H](C)c1c(Nc2ccc([C@H](N(C)C(=O)C3CCCN(S(C)(=O)=O)C3)C(F)(F)F)cc2)cnc2nc(Cl)nn12` (stereo partly drawn) [Compound 3.7, N-[(1S)-1-[4-({2-chloro-7-[(1S)-1-methoxyethyl]-[1,2,4]triazolo[1,5-a]pyrimidin-6-yl}amino)phenyl]-2,2,2-trifluoroethyl]-1-methanesulfonyl-N-methylpiperidine-3-carboxamide], the results for the IC50 (in test [1]; on full length MALT1) were over 1 µM and 0.1 to 1 µM, respectively.

Take `CO[C@@H](C)c1c(Nc2ccc([C@H](N(C)C(=O)C3CCN(C(C)=O)C3)C(F)(F)F)cc2)cnc2nc(Cl)nn12` (stereo partly drawn) [Compound 3.8, 1-acetyl-N-[(1S)-1-[4-({2-chloro-7-[(1S)-1-methoxyethyl]-[1,2,4]triazolo[1,5-a]pyrimidin-6-yl}amino)phenyl]-2,2,2-trifluoroethyl]-N-methylpyrrolidine-3-carboxamide]: the IC50 in test [1] was over 1 µM; against full length MALT1, 0.1 to 1 µM.

For the compound `CNC(=O)N1CCC(C(=O)N(C)[C@@H](c2ccc(Nc3cnc4nc(Cl)nn4c3[C@H](C)OC)cc2)C(F)(F)F)C1` (stereo partly drawn) [Compound 3.9, N3-[(1S)-1-[4-({2-chloro-7-[(1S)-1-methoxyethyl]-[1,2,4]triazolo[1,5-a]pyrimidin-6-yl}amino)phenyl]-2,2,2-trifluoroethyl]-N1,N3-dimethylpyrrolidine-1,3-dicarboxamide], the IC50 in test [1] is 0.1 to 1 µM; against full length MALT1 it was under 0.1 µM.

With `CO[C@@H](C)c1c(Nc2ccc([C@H](N(C)C(=O)C3CCC(CNC(C)=O)CC3)C(F)(F)F)cc2)cnc2nc(Cl)nn12` (stereo partly drawn) [Compound 3.11, N-[(1S)-1-[4-({2-chloro-7-[(1S)-1-methoxyethyl]-[1,2,4]triazolo[1,5-a]pyrimidin-6-yl}amino)phenyl]-2,2,2-trifluoroethyl]-4-(acetamidomethyl)-N-methylcyclohexane-1-carboxamide], the IC50 in test [1] is 0.1 to 1 µM; against full length MALT1, under 0.1 µM.

Take `COC(=O)NCC1CCC(C(=O)N(C)[C@@H](c2ccc(Nc3cnc4nc(Cl)nn4c3[C@H](C)OC)cc2)C(F)(F)F)CC1` (stereo partly drawn) [Compound 3.12, methyl N-[(4-{[(1S)-1-[4-({2-chloro-7-[(1S)-1-methoxyethyl]-[1,2,4]triazolo[1,5-a]pyrimidin-6-yl}amino)phenyl]-2,2,2-trifluoroethyl](methyl)carbamoyl}cyclohexyl)methyl]carbamate]: the figures for the IC50 (in test [1]; against full length MALT1) were 0.1 to 1 µM and under 0.1 µM, respectively.

With `CO[C@@H](C)c1c(Nc2ccc([C@H](N(C)C(=O)C3CCCN(C(=O)C4CC4)C3)C(F)(F)F)cc2)cnc2nc(Cl)nn12` (stereo partly drawn) [Compound 4.2, N-[(1S)-1-[4-({2-chloro-7-[(1S)-1-methoxyethyl]-[1,2,4]triazolo[1,5-a]pyrimidin-6-yl}amino)phenyl]-2,2,2-trifluoroethyl]-1-cyclopropanecarbonyl-N-methylpiperidine-3-carboxamide], the IC50 (in test [1]; on full length MALT1) was 0.1 to 1 µM throughout.

As for `CO[C@@H](C)c1c(Nc2ccc([C@H](N(C)C(=O)C3CCN(C(=O)C4CC4)C3)C(F)(F)F)cc2)cnc2nc(Cl)nn12` (stereo partly drawn) [Compound 4.3, N-[(1S)-1-[4-({2-chloro-7-[(1S)-1-methoxyethyl]-[1,2,4]triazolo[1,5-a]pyrimidin-6-yl}amino)phenyl]-2,2,2-trifluoroethyl]-1-cyclopropanecarbonyl-N-methylpyrrolidine-3-carboxamide], the IC50 in test [1] was 0.1 to 1 µM; against full length MALT1, under 0.1 µM.

On to `CO[C@@H](C)c1c(Nc2ccc([C@H](N(C)C(=O)C3CCCN(C)C3)C(F)(F)F)cc2)cnc2nc(Cl)nn12` (stereo partly drawn) [Compound 5.2, N—((S)-1-(4-((2-chloro-7-((S)-1-methoxyethyl)-[1,2,4]triazolo[1,5-a]pyrimidin-6-yl)amino)phenyl)-2,2,2-trifluoroethyl)-N,1-dimethylpiperidine-3-carboxamide], for which the values for the IC50 (in test [1]; at full length MALT1) were over 1 µM and 0.1 to 1 µM, respectively.

Turning to `CO[C@@H](C)c1c(Nc2ccc([C@H](N(C)C(=O)C3CCN(C)C3)C(F)(F)F)cc2)cnc2nc(Cl)nn12` (stereo partly drawn) [Compound 5.3, N-[(1S)-1-[4-({2-chloro-7-[(1S)-1-methoxyethyl]-[1,2,4]triazolo[1,5-a]pyrimidin-6-yl}amino)phenyl]-2,2,2-trifluoroethyl]-N,1-dimethylpyrrolidine-3-carboxamide hydrochloride], the 50% inhibitory concentration (IC50) in test [1] is over 1 µM; against full length MALT1 it was 0.1 to 1 µM.

`CO[C@@H](C)c1c(Nc2ccc([C@H](N(C)C(=O)[C@H]3CC[C@H](O)CC3)C(F)(F)F)cc2)cnc2nc(Cl)nn12` [Compound 6.1, (1r,4S)—N—((S)-1-(4-((2-chloro-7-((S)-1-methoxyethyl)-[1,2,4]triazolo[1,5-a]pyrimidin-6-yl)amino)phenyl)-2,2,2-trifluoroethyl)-4-hydroxy-N-methylcyclohexane-1-carboxamide]: the values for the IC50 (in test [1]; against full length MALT1) were 0.1 to 1 µM and under 0.1 µM, respectively.

Consider `CC(C)c1c(Nc2ccc([C@H](N(C)C(=O)[C@H]3CC[C@H](C(=O)O)CC3)C(F)(F)F)cc2)cnc2nc(Cl)nn12` [Compound 7.2, (1S,4r)-4-(((S)-1-(4-((2-chloro-7-isopropyl-[1,2,4]triazolo[1,5-a]pyrimidin-6-yl)amino)phenyl)-2,2,2-trifluoroethyl)(methyl)carbamoyl)cyclohexane-1-carboxylic acid ammonia salt], for which the concentration for half-maximal inhibition (IC50) in test [1] is 0.1 to 1 µM; against full length MALT1, under 0.1 µM.

`CO[C@@H](C)c1c(Nc2ccc([C@H](N(C)C(=O)[C@H]3C[C@H](C(=O)O)C3)C(F)(F)F)cc2)cnc2nc(Cl)nn12` [Compound 7.3, (1S,3r)-3-(((S)-1-(4-((2-chloro-7-((S)-1-methoxyethyl)-[1,2,4]triazolo[1,5-a]pyrimidin-6-yl)amino)phenyl)-2,2,2-trifluoroethyl)(methyl)carbamoyl)cyclobutane-1-carboxylic acid]: the IC50 in test [1] is over 1 µM; against full length MALT1, 0.1 to 1 µM.

For the compound `CO[C@H](C)c1c(Nc2ccc([C@H](N(C)C(=O)C3CCS(=O)(=O)CC3)C(F)(F)F)cc2)cnc2nc(Cl)nn12` [Compound 10.1, N—((S)-1-(4-((2-chloro-7-((R)-1-methoxyethyl)-[1,2,4]triazolo[1,5-a]pyrimidin-6-yl)amino)phenyl)-2,2,2-trifluoroethyl)-N-methyltetrahydro-2H-thiopyran-4-carboxamide 1,1-dioxide], the half-inhibitory concentration (IC50) (in test [1]; against full length MALT1) was 0.1 to 1 µM throughout.
